US20250188060A1, “ALPHA1A-ADRENERGIC RECEPTOR AGONISTS AND METHODS OF USE” (CuraSen Therapeutics, Inc., priority 2022, published 2025)
Like-named read-outs stand apart in the source and are kept apart here.

Molecular target: T1, α1A-ARs (Homo sapiens, UniProt P35348)
T1 sequence (P35348 1-466): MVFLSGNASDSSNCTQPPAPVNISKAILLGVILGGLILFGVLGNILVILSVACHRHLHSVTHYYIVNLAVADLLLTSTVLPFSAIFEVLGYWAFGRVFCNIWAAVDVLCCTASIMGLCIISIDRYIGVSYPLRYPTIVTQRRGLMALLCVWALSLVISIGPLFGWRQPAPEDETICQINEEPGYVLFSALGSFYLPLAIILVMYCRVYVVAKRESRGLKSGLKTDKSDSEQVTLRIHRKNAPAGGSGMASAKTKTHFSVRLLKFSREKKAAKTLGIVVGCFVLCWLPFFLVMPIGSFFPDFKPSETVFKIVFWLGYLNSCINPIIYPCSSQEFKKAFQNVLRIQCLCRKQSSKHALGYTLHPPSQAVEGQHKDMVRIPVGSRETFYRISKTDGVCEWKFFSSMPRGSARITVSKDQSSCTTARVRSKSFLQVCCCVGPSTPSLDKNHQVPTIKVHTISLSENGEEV
Test: Calcium flux assay (Calcium 6 dye) in cells expressing an α1-AR
Type: cell-based
Settings: for Emax: read-out: Average Emax (% epi); for EC50: read-out: Average pEC50 (converted)
Text: Calcium flux experimental design: alpha-1 adrenergic receptors (α1-ARs) couple to Gq proteins, which results in downstream activation of phospholipase C and release of calcium from intracellular stores. Intracellular calcium increase upon α1-AR activation can be detected by Calcium 6 dye.
Cell preparation: cells expressing an α1-AR were washed in warmed phosphate-buffered saline to remove medium and harvested using versene (Caisson Labs, catalog #EDL01).
Media was removed from cells by tapping plates upside-down on absorbent wipes, followed by 15 second upside-down 50×g centrifugation, again on absorbent wipes. 12 μL cell dye solution was added to cells using a reagent dispenser (Integra viaFILL) and cells were incubated for 90 minutes at 37° C., 5% CO2.
Compound preparation: candidate alpha-adrenergic compounds, dissolved to 10 mM in DMSO, were diluted in assay buffer (HBSS/HEPES containing 2 mM CaCl2) and 2 mM probenecid sodium salt). […] On all assay plates, vehicle (DMSO) and positive control (10 μM epinephrine) conditions were included on the plate, as well as a dose-response curve of epinephrine. […] 384 well compound plates were centrifuged briefly at 250×g, sealed (Axygen PCR-SP) and incubated at 37° C. until the 90 minute cell dye incubation was complete.
Calcium 6 stained cells and 384 well compound plates were loaded onto the Flexstation and incubated on the machine for 5 minutes before initiating the assay.
For each assay well, baseline Calcium 6 fluorescence was detected for 18 seconds prior to 12 μL compound addition at 12 μL per second. Changes in Calcium 6 fluorescence were detected for a further 22 seconds, for a total read time of 40 seconds. All detection was performed with medium gain sensitivity, bottom read, with 6 flashes per read.
Data analysis: for calcium flux, analysis of maximum change from baseline over the 40-second read time was determined using Softmax Pro and data was exported as raw text files. Potency estimates (EC50) were derived from dose response curves (maximum change from baseline versus the log concentration of test compound) fit by four-parameter nonlinear regression using Graphpad Prism. Efficacy was determined by comparing the magnitude of the test compound signal window (fitted curve max−min) with the signal window of the full agonist control, epinephrine. […] All experiments were repeated a minimum of three times, with the average (mean) potency and maximum effect relative to the within-plate full agonist dose-response comparator reported.

[1] = α1A-AR calcium flux, mean of at least three experiments
[2] = α1A-AR calcium flux, relative to full agonist epinephrine, mean of at least three experiments

SMILES | EC50 [1] | Emax [2] | Emax
CC(C)c1cccc2c(Cl)nn(CC3=NCCN3)c12 [Compound 47] | 10 to 977 nM |  | > 61%
Cc1cn(CC2=NCCN2)c2c(Cl)ccc(C(C)C)c12 [Compound 5] | 10 to 977 nM |  | > 61%
COc1ccc(C(C)C)c2ccn(CC3=NCCN3)c12 [Compound 7] | 10 to 977 nM |  | > 61%
CCc1cccc2c(Cl)nn(CC3=NCCN3)c12 [Compound 40] | 10 to 977 nM |  | > 61%
Cc1ccnc2c(Cl)nn(CC3=NCCN3)c12 [Compound 30] | 10 to 977 nM |  | > 61%
Fc1cccc2c(Cl)nn(CC3=NCCN3)c12 [Compound 26] | 10 to 977 nM |  | 21 to 60%
Fc1cc(Cl)c2c(c1)c(C1CC1)cn2CC1=NCCN1 [Compound 8] | 10 to 977 nM |  | < 20%
CC(C)Oc1cccc2c(Cl)nn(CC3=NCCN3)c12 [Compound 38] | > 1000 nM |  | 21 to 60%
Fc1cc(F)c2c(c1)c(C1CC1)cn2CC1=NCCN1 [Compound 11] | < 9.77 nM |  | > 61%
Clc1cccc2c1c(Cl)nn2CC1=NCCN1 [Compound 45] | > 1000 nM |  | < 20%
FC(F)(F)c1nn(CC2=NCCN2)c2c(Cl)cccc12 [Compound 25] | 10 to 977 nM |  | 21 to 60%
Clc1cccc2ccn(CC3=NCCN3)c12 [Compound 13] | 10 to 977 nM |  | 21 to 60%
CC(C)(C)c1nn(CC2=NCCN2)c2c(Cl)cccc12 [Compound 16] | > 1000 nM |  | < 20%
Cc1cccc2c(C(F)(F)F)nn(CC3=NCCN3)c12 [Compound 61] | > 1000 nM |  | < 20%
Clc1ccc2c(c1)c(Cl)nn2CC1=NCCN1 [Compound 31] | > 1000 nM |  | 21 to 60%
Fc1ccc2c(C3CC3)cn(CC3=NCCN3)c2c1Cl [Compound 12] | < 9.77 nM |  | 21 to 60%

SMILES | EC50 [1] | Emax [2] | Emax
Clc1cccc2c(C3CC3)cn(CC3=NCCN3)c12 [Compound 3] | < 9.77 nM |  | 21 to 60%
Clc1ccc2c(Cl)nn(CC3=NCCN3)c2c1 [Compound 32] | 10 to 977 nM |  | > 61%
Cc1cccc2c(C(C)(F)F)nn(CC3=NCCN3)c12 [Compound 62] | 10 to 977 nM |  | > 61%
Fc1cc(Cl)c2c(c1)c(Cl)nn2CC1=NCCN1 [Compound 23] | 10 to 977 nM |  | > 61%
Cc1cn(CC2=NCCN2)c2c(Cl)cccc12 [Compound 17] | < 9.77 nM |  | > 61%
FC(F)(F)c1cccc2c(Cl)nn(CC3=NCCN3)c12 [Compound 27] | 10 to 977 nM |  | > 61%
Cc1cc2cccc(Cl)c2n1CC1=NCCN1 [Compound 19] | > 1000 nM |  | < 20%
FC(F)c1cccc2c(Cl)nn(CC3=NCCN3)c12 [Compound 43] | > 1000 nM |  | < 20%
Cc1cc(Cl)cc2c(Cl)nn(CC3=NCCN3)c12 [Compound 46] | 10 to 977 nM |  | > 61%
Clc1cccc2cnn(CC3=NCCN3)c12 [Compound 15] | > 1000 nM |  | < 20%
CC(F)(F)c1cccc2c(Cl)nn(CC3=NCCN3)c12 [Compound 39] | 10 to 977 nM |  | 21 to 60%
Cc1cc(F)cc2c(Cl)nn(CC3=NCCN3)c12 [Compound 50] | > 1000 nM |  | < 20%
Clc1nn(CC2=NCCN2)c2c(Cl)cccc12 [Compound 20] | 10 to 977 nM |  | > 61%
N#Cc1cn(CC2=NCCN2)c2c(Cl)cccc12 [Compound 18] | 10 to 977 nM |  | > 61%
Cc1cc2c(C(C)C)ccc(Cl)c2n1CC1=NCCN1 [Compound 10] | 10 to 977 nM |  | > 61%
Fc1ccc2c(Cl)nn(CC3=NCCN3)c2c1Cl [Compound 24] | 10 to 977 nM |  | > 61%

The next lines start with results.

EC50 [1] | Emax [2] | SMILES | Emax
> 1000 nM | < 20% | FC(F)(F)c1cc(Cl)cc2c(Cl)nn(CC3=NCCN3)c12 [Compound 64] | 
10 to 977 nM | > 61% | Clc1cccc2c(-c3ccon3)nn(CC3=NCCN3)c12 [Compound 63] | 
10 to 977 nM | 21 to 60% | Clc1nn(CC2=NCCN2)c2c(N3CCCCC3)cccc12 [Compound 70] | 
10 to 977 nM | 21 to 60% | Clc1nn(CC2=NCCN2)c2c(-c3ccccc3)cccc12 [Compound 34] | 
> 1000 nM | < 20% | Clc1nn(CC2=NCCN2)c2c(-c3ccon3)cccc12 [Compound 59] | 
10 to 977 nM | > 61% | FC(F)(F)Oc1cccc2c(Cl)nn(CC3=NCCN3)c12 [Compound 37] | 
10 to 977 nM | 21 to 60% | CC(F)(F)c1cc(F)cc2c(Cl)nn(CC3=NCCN3)c12 [Compound 75] | 
10 to 977 nM | 21 to 60% | Cc1cc(F)cc2c(N3CCCC3)nn(CC3=NCCN3)c12 [Compound 77] | 
> 1000 nM | 21 to 60% | CC(F)(F)c1cccc2c(N3CCCC3)nn(CC3=NCCN3)c12 [Compound 74] | 
> 1000 nM | 21 to 60% | Clc1cccc2c(-c3ccccc3)nn(CC3=NCCN3)c12 [Compound 42] | 
10 to 977 nM | > 61% | Clc1cccc2c(-n3cccc3)nn(CC3=NCCN3)c12 [Compound 58] | 
> 1000 nM | 21 to 60% | Clc1cccc2c(C3=CCOCC3)nn(CC3=NCCN3)c12 [Compound 54] | 
10 to 977 nM | > 61% | Cc1cc(C(F)(F)F)cc2c(Cl)nn(CC3=NCCN3)c12 [Compound 73] | 
> 1000 nM | 21 to 60% | FC(F)(F)Cc1cccc2c(Cl)nn(CC3=NCCN3)c12 [Compound 53] | 
> 1000 nM | > 61% | Clc1cccc2c(-n3cccn3)nn(CC3=NCCN3)c12 [Compound 60] | 
10 to 977 nM | > 61% | Clc1nn(CC2=NCCN2)c2c(-n3cccc3)cccc12 [Compound 33] | 
> 1000 nM | < 20% | Clc1cccc2c(-c3cccnc3)nn(CC3=NCCN3)c12 [Compound 14] | 

EC50 [1] | Emax [2] | SMILES | Emax
10 to 977 nM | 21 to 60% | Clc1cccc2c(-c3ccccn3)nn(CC3=NCCN3)c12 [Compound 51] | 
> 1000 nM | < 20% | Cc1cc(Cl)cc2c(N3CCCCC3)nn(CC3=NCCN3)c12 [Compound 69] | 
> 1000 nM | < 20% | Clc1cccc2c(N3CCCC3)nn(CC3=NCCN3)c12 [Compound 56] | 
> 1000 nM | < 20% | CC(C)c1ccc(Cl)c2c1c(S(C)(=O)=O)cn2CC1=NCCN1 [Compound 9] | 
10 to 977 nM | > 61% | Fc1cc(C(F)(F)F)c2c(c1)c(Cl)nn2CC1=NCCN1 [Compound 65] | 
> 1000 nM | < 20% | Clc1cn(-c2cn[nH]c2)c2cc(CC3=NCCN3)ccc12 [Compound 4] | 
> 1000 nM | 21 to 60% | Clc1nn(CC2=NCCN2)c2c(N3CCCC3)cccc12 [Compound 67] | 
10 to 977 nM | 21 to 60% | Clc1cccc2c(-c3ccncc3)nn(CC3=NCCN3)c12 [Compound 49] | 
> 1000 nM | < 20% | Clc1nn(CC2=NCCN2)c2c(-c3cnccn3)cccc12 [Compound 52] | 
> 1000 nM | < 20% | Clc1cccc2c(-c3ncco3)nn(CC3=NCCN3)c12 [Compound 55] | 
10 to 977 nM | > 61% | CC(F)(F)c1cc(Cl)cc2c(Cl)nn(CC3=NCCN3)c12 [Compound 72] | 
> 1000 nM | < 20% | FC(F)(F)c1cccc2c(N3CCCC3)nn(CC3=NCCN3)c12 [Compound 71] | 
10 to 977 nM | 21 to 60% | Clc1nn(CC2=NCCN2)c2c(-n3cccn3)cccc12 [Compound 36] | 
> 1000 nM | < 20% | Cc1cccc2c(N3CCCCC3)nn(CC3=NCCN3)c12 [Compound 68] | 
10 to 977 nM | 21 to 60% | Clc1nn(CC2=NCCN2)c2c(-c3ccccn3)cccc12 [Compound 48] | 
10 to 977 nM | 21 to 60% | Cc1cc(Cl)cc2c(N3CCCC3)nn(CC3=NCCN3)c12 [Compound 66] | 
